Reference: article PMC12624712 (ACS Infectious Diseases, 2025)
Like-named read-outs stand apart in the source and are kept apart here.

What was measured:
[1] = test system: RVFV strain ZH-548; experiment: microbe, parasite or virus in culture; format: cell-based; settings: for IC50: Rift Valley fever virus
[2] = in vitro; settings: African green monkey
[3] = target: RVFV L protein (Rift valley fever virus, UniProt P27316); experiment: cell-based
[4] = test system: VERO E6 cells
[5] = Vero C1008, 72 h, read-out: IC50, cytopathic effect reduction assay
[6] = Vero C1008, read-out: IC50: 95% CI, CPE reduction assay

Chain of RVFV L protein (P27316 whole entry, looked up): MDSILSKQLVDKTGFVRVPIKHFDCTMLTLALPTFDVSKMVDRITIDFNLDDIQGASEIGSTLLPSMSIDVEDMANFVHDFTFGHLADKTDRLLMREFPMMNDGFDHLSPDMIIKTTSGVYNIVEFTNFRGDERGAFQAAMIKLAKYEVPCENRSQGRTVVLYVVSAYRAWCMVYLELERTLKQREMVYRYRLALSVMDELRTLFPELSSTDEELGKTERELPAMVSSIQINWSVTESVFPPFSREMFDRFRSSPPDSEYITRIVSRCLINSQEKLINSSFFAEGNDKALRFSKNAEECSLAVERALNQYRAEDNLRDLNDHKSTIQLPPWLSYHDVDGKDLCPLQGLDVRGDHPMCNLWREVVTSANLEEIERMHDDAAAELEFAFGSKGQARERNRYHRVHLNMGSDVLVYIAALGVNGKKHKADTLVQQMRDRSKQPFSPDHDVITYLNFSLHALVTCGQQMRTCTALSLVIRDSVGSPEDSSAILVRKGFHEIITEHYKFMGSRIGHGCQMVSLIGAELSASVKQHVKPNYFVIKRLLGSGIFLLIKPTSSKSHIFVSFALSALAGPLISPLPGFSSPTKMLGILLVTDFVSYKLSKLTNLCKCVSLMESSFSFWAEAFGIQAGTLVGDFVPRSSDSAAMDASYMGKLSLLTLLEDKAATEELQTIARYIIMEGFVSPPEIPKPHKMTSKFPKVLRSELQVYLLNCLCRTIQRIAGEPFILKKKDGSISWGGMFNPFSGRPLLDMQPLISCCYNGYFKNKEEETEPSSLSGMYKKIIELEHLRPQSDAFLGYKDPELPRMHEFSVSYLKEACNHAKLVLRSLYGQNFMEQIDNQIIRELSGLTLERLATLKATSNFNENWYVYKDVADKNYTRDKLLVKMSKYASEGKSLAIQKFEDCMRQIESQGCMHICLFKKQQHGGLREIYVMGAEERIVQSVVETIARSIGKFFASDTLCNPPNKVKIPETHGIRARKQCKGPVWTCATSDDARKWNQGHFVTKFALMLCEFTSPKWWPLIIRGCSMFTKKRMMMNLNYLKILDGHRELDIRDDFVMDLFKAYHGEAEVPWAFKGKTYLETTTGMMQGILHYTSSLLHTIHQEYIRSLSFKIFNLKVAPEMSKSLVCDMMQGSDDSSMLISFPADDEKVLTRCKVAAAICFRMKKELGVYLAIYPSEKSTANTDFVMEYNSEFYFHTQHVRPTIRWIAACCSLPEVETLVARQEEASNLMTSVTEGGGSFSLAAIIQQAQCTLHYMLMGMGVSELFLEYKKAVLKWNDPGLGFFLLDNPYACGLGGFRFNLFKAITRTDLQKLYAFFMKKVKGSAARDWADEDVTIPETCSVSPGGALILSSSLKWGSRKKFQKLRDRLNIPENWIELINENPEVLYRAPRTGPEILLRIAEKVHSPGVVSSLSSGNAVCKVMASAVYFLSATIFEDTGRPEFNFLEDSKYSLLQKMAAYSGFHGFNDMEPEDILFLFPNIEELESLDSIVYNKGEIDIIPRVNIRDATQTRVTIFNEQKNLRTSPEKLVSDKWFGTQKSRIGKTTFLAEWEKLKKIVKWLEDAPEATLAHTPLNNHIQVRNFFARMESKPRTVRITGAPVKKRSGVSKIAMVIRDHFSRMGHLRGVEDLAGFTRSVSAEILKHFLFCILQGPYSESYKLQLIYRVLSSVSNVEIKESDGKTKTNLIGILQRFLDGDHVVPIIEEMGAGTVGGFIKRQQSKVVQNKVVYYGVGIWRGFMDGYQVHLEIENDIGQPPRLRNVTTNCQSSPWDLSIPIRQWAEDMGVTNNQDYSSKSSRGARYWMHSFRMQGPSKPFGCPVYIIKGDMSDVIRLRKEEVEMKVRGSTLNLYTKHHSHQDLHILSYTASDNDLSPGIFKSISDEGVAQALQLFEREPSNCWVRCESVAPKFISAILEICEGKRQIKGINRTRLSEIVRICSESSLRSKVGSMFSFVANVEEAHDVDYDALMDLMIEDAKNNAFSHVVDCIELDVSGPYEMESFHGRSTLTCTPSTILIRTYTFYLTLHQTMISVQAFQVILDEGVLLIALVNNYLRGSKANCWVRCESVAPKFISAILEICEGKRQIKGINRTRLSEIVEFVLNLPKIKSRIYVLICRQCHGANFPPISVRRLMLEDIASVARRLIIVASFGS

| Compound | IC50 [1, 5] [µM] | CC50 [2] [µM] | also measured |
| --- | --- | --- | --- |
| Cc1cn([C@H]2C[C@H](N=[N+]=[N-])[C@@H](CO)O2)c(=O)[nH]c1=O [Zidovudine] | > 100 | > 100 | – |
| CC(C)OC(=O)[C@H](C)N[P@](=O)(CO[C@H](C)Cn1cnc2c(N)ncnc21)Oc1ccccc1 [Tenofovir Alafenamide] | > 100 | > 100 | – |
| COC(=O)OCOc1c2n(ccc1=O)N([C@@H]1c3ccccc3SCc3c1ccc(F)c3F)[C@@H]1COCCN1C2=O [Baloxavir Marboxil] | > 100 | > 100 | – |
| Nc1nc(=O)n([C@@H]2CS[C@H](CO)O2)cc1F [Emtricitabine] | > 100 | > 100 | – |
| Nc1ccn([C@@H]2CS[C@H](CO)O2)c(=O)n1 [Lamivudine] | > 100 | > 100 | – |
| CC(C)C(=O)OC[C@H]1O[C@@H](n2ccc(NO)nc2=O)[C@H](O)[C@@H]1O [Molnupiravir] | 27 ± 4 | > 100 | – |
| CC(=O)Nc1ccn([C@@H]2O[C@H](CO)[C@@H](O)[C@H]2F)c(=O)n1 [N4-acetyl-2'-fluoro-2'-deoxycytidine] | 20 ± 3 | > 100 | – |
| NC(=O)c1ncn([C@@H]2O[C@H](CO)[C@@H](O)[C@H]2O)n1 [Ribavirin] | 55 ± 9 | > 100 | – |
| Cc1cn([C@@H]2O[C@H](CO)[C@@H](O)[C@H]2F)c(=O)[nH]c1=O [2´-fluoro-2´-deoxythymidine] | > 100 | > 100 | – |
| Nc1ccn([C@@H]2C=C(CO)[C@@H](O)[C@H]2O)c(=O)n1 [Cyclopentenylcytosine] | > 100 | > 100 | – |
| Nc1ncnc2c1ncn2[C@@H]1O[C@H](CO)[C@@H](O)[C@H]1F [2´-fluoro-2´-deoxyadenosine] | > 100 | > 100 | – |
| Nc1ccn([C@@H]2O[C@H](CO)[C@@H](O)[C@H]2F)c(=O)n1 [2'-fluoro-2'-deoxycytidine] | 3 ± 0.3 | > 100 | IC50 [3]: 5.9 ± 1.1 µM; Cytotoxicity [4]: nontoxic in selected concentration range; IC50 [1, 6]: 2.4 to 3.9 µM |
| CCC(CC)COC(=O)[C@H](C)N[P@](=O)(OC[C@H]1O[C@@](C#N)(c2ccc3c(N)ncnn23)[C@H](O)[C@@H]1O)Oc1ccccc1 [Remdesivir] | > 100 | > 100 | Activity against RVFV in cell culture [1]: no effect |
| CC(C)OC(=O)[C@H](C)N[P@](=O)(OC[C@H]1O[C@@H](n2ccc(=O)[nH]c2=O)[C@](C)(F)[C@@H]1O)Oc1ccccc1 [Sofosbuvir] | > 100 | > 100 | Activity against RVFV in cell culture [1]: lacked activity |
| O=c1nc(NO)ccn1[C@@H]1O[C@H](CO)[C@@H](O)[C@H]1O [EIDD-1931] | 2 ± 0.3 | > 100 | IC50 [3]: 1.6 ± 0.2 µM; Cytotoxicity [4]: nontoxic in selected concentration range; IC50 [1, 6]: 1.5 to 2.8 µM |
| NC(=O)c1nccnc1O [T-1105] | > 100 | > 100 | – |
| NC(=O)c1nc(F)c[nH]c1=O [Favipiravir] | 37 ± 6 | > 100 | – |

| Compound | IC50 [1, 5] [µM] | CC50 [2] [µM] | also measured |
| --- | --- | --- | --- |
| C[C@@]1(F)[C@H](O)[C@@H](CO)O[C@H]1n1ccc(N)nc1=O [PSI-6130, 2'-deoxy-2'-fluoro-2'-C-methylcytidine] | > 100 | > 100 | – |
| O=C(O)[C@H]1C2CCC(CC2)[C@@H]1Nc1nc(-c2c[nH]c3ncc(F)cc23)ncc1F [Pimodivir] | > 100 | > 100 | – |
| O=c1ccn([C@@H]2O[C@H](CO)[C@@H](O)[C@H]2F)c(=O)[nH]1 [2´-fluoro-2´-deoxyuridine] | > 100 | > 100 | – |
| 5'-fluoro-2'-deoxycytidine | – | – | CC50 [4]: > 100 µM |
| O=c1ccn([C@@H]2C=C(CO)[C@@H](O)[C@H]2O)c(=O)[nH]1 [Cyclopentenyluracil] | > 100 | > 100 | – |
| Nc1ccn([C@@H]2O[C@H](CO)[C@@H](O)[C@@H]2O)c(=O)n1 [Cytarabine, Cytosine arabinoside] | > 100 | > 100 | – |
| Nc1nc2c(ncn2[C@@H]2O[C@H](CO)[C@@H](O)[C@H]2F)c(=O)[nH]1 [2´-fluoro-2´-deoxyguanosine] | 23 ± 3 | > 100 | – |
| 5'-azacytidine | – | – | CC50 [4]: > 100 µM |
| COc1c(-c2ccc3cc(NS(C)(=O)=O)ccc3c2)cc(-n2ccc(=O)[nH]c2=O)cc1C(C)(C)C [Dasabuvir] | > 100 | 26 ± 7 | Activity against RVFV in cell culture [1]: lacked activity |
| 5'-aza-2'-deoxycytidine [Decitabine] | – | – | CC50 [4]: > 100 µM |
| Nc1ccn(C[C@@H](CO)OCP(=O)(O)O)c(=O)n1 [Cidofovir] | > 100 | > 100 | Activity against RVFV in cell culture [1]: no effect |
| Nc1ccn([C@@H]2O[C@H](CO)[C@@H](O)C2(F)F)c(=O)n1 [Gemcitabine, 2'-deoxy-2',2'-difluorocytidine] | > 100 | > 100 | – |
| Cc1cn([C@H]2C=C[C@@H](CO)O2)c(=O)[nH]c1=O [Stavudine] | > 100 | > 100 | – |
| CCCC(CCC)C(=O)Nc1ccn([C@@H]2O[C@H](CO)[C@@H](O)C2(F)F)c(=O)n1 [LY-2334737] | > 100 | > 100 | – |
| O=C(Nc1ccn([C@@H]2O[C@H](CO)[C@@H](O)[C@H]2F)c(=O)n1)c1ccccc1 [N4-benzoyl-2'-fluoro-2'-deoxycytidine] | 34 ± 4 | > 100 | – |
| CCCCCCCC/C=C/CCCCCCCC(=O)OC[C@H]1O[C@@H](n2ccc(N)nc2=O)C(F)(F)[C@@H]1O [Gemcitabine elaidate] | > 100 | > 100 | – |
